The text below walks through data of ChEMBL document CHEMBL4765455, “Design, synthesis, and biological evaluations of novel 3-amino-4-ethynyl indazole derivatives as Bcr-Abl kinase inhibitors with potent cellular antileukemic activity” (Eur J Med Chem, 2020).

Usually GI50 stands for the concentration giving 50% growth inhibition. As usually defined, the IC50 is the midpoint of a concentration-inhibition curve.

Data set [1] concerns K562. Description: Antiproliferative activity against human K562 cells assessed as cell growth inhibition incubated for 72 hrs by MTT assay. Format: functional. For orientation: Tetrazolium dyes change colour on reduction, which living cells bring about.
Data set [2] in a line: Antiproliferative activity against human L132 cells assessed as cell growth inhibition incubated for 72 hrs by MTT assay. Format: cell-based.
The target of data set [3] is Bcr/Abl fusion protein (Homo sapiens, UniProt P00519, T315I). Description: Inhibition of BCR-ABL T315I mutant (unknown origin) incubated for 40 mins in presence of [gamma33P]ATP by scintillation method. It counts as protein assay.
For data set [4], the target named is Bcr/Abl fusion protein (Homo sapiens, UniProt P00519). Description: Inhibition of wild type BCR-ABL (unknown origin) incubated for 40 mins in presence of [gamma33P]ATP by scintillation method. It counts as protein assay.
For data set [5], the system named is CCRF-CEM. Nature of the data set: Antiproliferative activity against human CCRF-CEM cells assessed as cell growth inhibition at 10 uM measured after 48 hrs by SRB assay relative to control. Format: functional. The following applies: read-out: GI. (Sulforhodamine B stains cellular protein and so reports cell mass.)
In data set [6] the test system is CCRF-CEM. Nature of the data set: Antiproliferative activity against human CCRF-CEM cells assessed as cell growth inhibition measured after 48 hrs by SRB assay. Format: functional.
For data set [7], the system named is K562. Description: Antiproliferative activity against human K562 cells assessed as cell growth inhibition at 10 uM measured after 48 hrs by SRB assay relative to control. The following applies: read-out: GI. It counts as functional.
Data set [8] has as its system K562. Description: Antiproliferative activity against human K562 cells assessed as cell growth inhibition measured after 48 hrs by SRB assay. Format: functional.
The test system of data set [9] is HL-60(TB). Description: Antiproliferative activity against human HL-60(TB) cells assessed as cell growth inhibition at 10 uM measured after 48 hrs by SRB assay relative to control. It counts as functional.
Data set [10] relates to HL-60(TB). Description: Antiproliferative activity against human HL-60(TB) cells assessed as cell growth inhibition measured after 48 hrs by SRB assay. Format: functional.
In data set [11] the test system is MOLT-4. Description: Antiproliferative activity against human MOLT-4 cells assessed as cell growth inhibition at 10 uM measured after 48 hrs by SRB assay relative to control. The following applies: read-out: GI. It counts as functional.
Data set [12] concerns MOLT-4. Nature of the data set: Antiproliferative activity against human MOLT-4 cells assessed as cell growth inhibition measured after 48 hrs by SRB assay. Format: functional.
Data set [13] concerns RPMI-8226. Description: Antiproliferative activity against human RPMI-8226 cells assessed as cell growth inhibition at 10 uM measured after 48 hrs by SRB assay relative to control. Format: functional. The following applies: read-out: GI.
The test system of data set [14] is RPMI-8226. Description: Antiproliferative activity against human RPMI-8226 cells assessed as cell growth inhibition measured after 48 hrs by SRB assay. It counts as functional.
Data set [15] deals with SR. Nature of the data set: Antiproliferative activity against human SR cells assessed as cell growth inhibition at 10 uM measured after 48 hrs by SRB assay relative to control. It counts as functional. The settings on record: read-out: GI.
The subject of data set [16] is SR. Nature of the data set: Antiproliferative activity against human SR cells assessed as cell growth inhibition measured after 48 hrs by SRB assay. It counts as functional.
A short description of data set [17]: Selectivity index, ratio of GI50 for human HL60(TB) cells to GI50 for human K562 cells. It counts as functional.

The source made the active and inactive calls. No cut-off for these calls is given here. A value given as a limit tells only on which side of the number the result lay.

Turning to `Cc1ccc(C(=O)Nc2cccc(C#Cc3cccc4[nH]nc(N)c34)c2)cc1C(F)(F)F`, the 50% growth inhibitory concentration (GI50) in the data set on K562 [1] worked out at 2.35 µM. In data set [2], the 50% growth inhibitory concentration (GI50) at 72 h was over 100 µM.

As to `Nc1n[nH]c2cccc(C#Cc3cccc(C(=O)Nc4cccc(C(F)(F)F)c4)c3)c12`, the IC50 at Bcr/Abl fusion protein [3] turned out to be 2.26 µM. Also, the 50% growth inhibitory concentration (GI50) in the data set on K562 [1] turned out to be 3.47 µM. In addition, in data set [2], the GI50 at 72 h was 15.3 µM.

As to `CN1CCN(Cc2cc(NC(=O)c3cccc(C#Cc4cccc5[nH]nc(N)c45)c3)cc(C(F)(F)F)c2)CC1`, the IC50 at Bcr/Abl fusion protein [4] came to 0.0567 µM; on Bcr/Abl fusion protein [3] it was 1.63 µM. Moreover, the concentration for 50% growth inhibition (GI50) in the data set on K562 [1] was 0.3 µM. For the same compound, the 50% growth inhibitory concentration (GI50) at 72 h in data set [2] is over 100 µM.

On to `Nc1n[nH]c2cccc(C#Cc3cccc(C(=O)Nc4cc(CN5CCOCC5)cc(C(F)(F)F)c4)c3)c12`, for which the figures for the IC50 at Bcr/Abl fusion protein [4] and on Bcr/Abl fusion protein [3] were 0.571 µM and 2.51 µM, respectively. Moreover, in the data set on K562 [1], the 50% growth inhibitory concentration (GI50) was 0.83 µM. The concentration for 50% growth inhibition (GI50) at 72 h in data set [2] is 16.7 µM.

Turning to `Nc1n[nH]c2cccc(C#Cc3cccc(NC(=O)c4cccc(C(F)(F)F)c4)c3)c12`, the IC50 on Bcr/Abl fusion protein [3] came to 2.55 µM. The GI50 in the data set with K562 [1] came to 1.54 µM. In addition, the concentration for 50% growth inhibition (GI50) at 72 h in data set [2] was over 100 µM.

As to `Cc1cn(-c2cc(NC(=O)c3cccc(C#Cc4cccc5[nH]nc(N)c45)c3)cc(C(F)(F)F)c2)cn1`, the IC50 on Bcr/Abl fusion protein [4] was determined as 0.0258 µM; at Bcr/Abl fusion protein [3] it was 0.824 µM. In addition, the concentration for 50% growth inhibition (GI50) with K562 [1] was 0.15 µM; with CCRF-CEM [6], 4.88 µM; in the data set with K562 [8], under 0.01 µM; in the data set with HL-60(TB) [10], 3.22 µM; in the data set with MOLT-4 [12], 3.84 µM; in the data set on RPMI-8226 [14], 4.54 µM. In addition, the GI50 in the data set with SR [16] stood at 5.06 µM. In data set [2], the GI50 at 72 h amounted to 12.9 µM. The inhibition of growth at 10 µM with CCRF-CEM [5] turned out to be 85%; in the data set with K562 [7] it was 96.8%; with HL-60(TB) [9] (read-out: GI), 87.5%; with MOLT-4 [11] it was 79.3%; in the data set with RPMI-8226 [13], 86.2%; in the data set on SR [15] it was 71.7%. For the same compound, the RatioGI50 in data set [17] worked out at 322.

As for `Cc1cn(-c2cc(C(=O)Nc3cccc(C#Cc4cccc5[nH]nc(N)c45)c3)cc(C(F)(F)F)c2)cn1`, the IC50 on Bcr/Abl fusion protein [4] worked out at 0.0154 µM; at Bcr/Abl fusion protein [3], 1.44 µM. Moreover, the GI50 in the data set on K562 [1] stood at 0.07 µM. The GI50 at 72 h in data set [2] is 10.9 µM.

Consider `CN1CCN(c2ccc(C(=O)Nc3cccc(C#Cc4cccc5[nH]nc(N)c45)c3)cc2C(F)(F)F)CC1`, for which the 50% growth inhibitory concentration (GI50) in the data set on K562 [1] is 1.48 µM. Moreover, in data set [2], the GI50 at 72 h was over 10 µM.

For `Nc1n[nH]c2cccc(C#Cc3cccc(C(=O)Nc4ccc(Cl)c(C(F)(F)F)c4)c3)c12`, the IC50 at Bcr/Abl fusion protein [3] is 1.42 µM. For the same compound, the GI50 with K562 [1] turned out to be 3.81 µM. Besides, in data set [2], the GI50 at 72 h was over 100 µM.

Turning to `Nc1n[nH]c2cccc(C#Cc3cccc(NC(=O)c4cc(N5CCOCC5)cc(C(F)(F)F)c4)c3)c12`, the IC50 on Bcr/Abl fusion protein [3] was determined as 4.84 µM. For the same compound, the GI50 in the data set with K562 [1] was determined as 2.21 µM. Further, in data set [2], the 50% growth inhibitory concentration (GI50) at 72 h is over 100 µM.

On to `Nc1n[nH]c2cccc(C#Cc3cccc(NC(=O)c4cc(F)cc(C(F)(F)F)c4)c3)c12`, for which the half-inhibitory concentration (IC50) on Bcr/Abl fusion protein [3] is 5.28 µM. Moreover, the GI50 in the data set on K562 [1] stood at 2.14 µM. The concentration for 50% growth inhibition (GI50) at 72 h in [2] was over 100 µM.

As for `Nc1n[nH]c2cccc(C#Cc3cccc(NC(=O)c4cc(C(F)(F)F)cc(C(F)(F)F)c4)c3)c12`, the half-maximal inhibitory concentration (IC50) at Bcr/Abl fusion protein [3] is over 20 µM. Also, the GI50 with K562 [1] is over 10 µM.

On to `Cc1ccc(NC(=O)c2ccc(CN3CCN(C)CC3)cc2)cc1Nc1nccc(-c2cccnc2)n1` [IMATINIB], for which the figures for the 50% growth inhibitory concentration (GI50) in the data set on K562 [1] and in the data set on K562 [8] were 0.8 µM and 0.02 µM, respectively. Further, the GI50 at 72 h in data set [2] was over 10 µM. In addition, the inhibition of growth at 10 µM in the data set on CCRF-CEM [5] came out at 6.6%; in the data set on MOLT-4 [11] it was 18%; in the data set with RPMI-8226 [13], 12.6%; with SR [15], 14.6%. For the same compound, the “growth inhibition (GI)” value in the data set on HL-60(TB) [9] was “inactive”.

With `Nc1n[nH]c2cccc(C#Cc3cccc(C(=O)Nc4ccc(CN5CCOCC5)c(C(F)(F)F)c4)c3)c12`, the IC50 at Bcr/Abl fusion protein [4] worked out at 0.194 µM; on Bcr/Abl fusion protein [3], 1.61 µM. Besides, the GI50 with K562 [1] amounted to 0.57 µM. In addition, the GI50 at 72 h in data set [2] is over 100 µM.

Take `Nc1n[nH]c2cccc(C#Cc3cccc(C(=O)Nc4cc(C(F)(F)F)cc(C(F)(F)F)c4)c3)c12`: the half-inhibitory concentration (IC50) on Bcr/Abl fusion protein [3] turned out to be 1.48 µM. In addition, in the data set with K562 [1], the GI50 is 0.52 µM. Besides, the GI50 at 72 h in data set [2] was over 100 µM.
